Key:
[1] = Tasting in sweet/salty solution (flavour profile by testers); type: in vivo; conditions: 1 ppm in aqueous 5% sucrose or 0.5% sodium chloride solution, 9 testers; for flavour profile: fatty (oily): scale 1 (action scarcely perceptible) to 9 (action highly perceptible)
Protocol: The 2,5-diacetyl-3a,5,6,6a-tetrahydro-6a-hydroxy-2,3a,5-trimethylfuro[2,3-d]-1,3-dioxole from Example 1 (1 ppm diacetyl trimer in aqueous 5 wt. % sucrose or 0.5% sodium chloride solution) was investigated for its flavouring action by 9 testers. The actions found were evaluated with a scale of from 1 (action scarcely perceptible) to 9 (action highly perceptible).
For comparison, a flavour profile of diacetyl (1 ppm in aq. 5% sucrose or 0.5% sodium chloride solution) was produced under otherwise identical conditions: fatty (oily) (5), cream (5), butter (7), milk (4), condensed milk (4), fruity (2), cheesy (2), sweet (4), vanillin (2), intensity (7), impact (7), fullness (7), adhesive (5), soft (6)

[2] = Stability of diacetyl trimer on heating; type: physicochemical; conditions: heated at 60° C. to 100° C. for 10 minutes

| SMILES | flavour profile: fatty (oily) [1] | flavour profile: adhesive ([1]; scale 1 to 9) | flavour profile: butter ([1]; scale 1 to 9) | flavour profile: caramel ([1]; scale 1 to 9) | flavour profile: cream ([1]; scale 1 to 9) | flavour profile: fresh cheese/quark ([1]; scale 1 to 9) | flavour profile: fullness ([1]; scale 1 to 9) | flavour profile: impact ([1]; scale 1 to 9) | flavour profile: intensity ([1]; scale 1 to 9) | flavour profile: soft ([1]; scale 1 to 9) | flavour profile: sweet ([1]; scale 1 to 9) | flavour profile: toffee ([1]; scale 1 to 9) | flavour profile: vanillin ([1]; scale 1 to 9) | decomposition on heating [2] | flavour profile: cheesy ([1]; scale 1 to 9) | flavour profile: condensed milk ([1]; scale 1 to 9) | flavour profile: fruity ([1]; scale 1 to 9) | flavour profile: milk ([1]; scale 1 to 9) |
| --- | --- | --- | --- | --- | --- | --- | --- | --- | --- | --- | --- | --- | --- | --- | --- | --- | --- | --- |
| CC(=O)C1(C)CC2(O)OC(C)(C(C)=O)OC2(C)O1 (racemic) [diacetyl trimer, 2,5-diacetyl-3a,5,6,6a-tetrahydro-6a-hydroxy-2,3a,5-trimethylfuro[2,3-d]-1,3-dioxole] | 7 | 8 | 8 | 4 | 6 | 4 | 7 | 7 | 6 | 6 | 6 | 6 | 3 | does not decompose | – | – | – | – |
| CC(=O)C(C)=O [diacetyl, 2,3-butanedione] | 5 | 5 | 7 | – | 5 | – | 7 | 7 | 7 | 6 | 4 | – | 2 | – | 2 | 4 | 2 | 4 |

From patent US8318711B2, “Use of diacetyl trimer as an aromatic and flavouring substance” (Symrise AG, priority 2004, dated 2012)
